This passage reports T/C results from PubChem BioAssay AID328 (DTP/NCI, 2004).

This experiment relates to BDF1 mice, P388 leukemia ip, median survival T/C. Briefly: NCI In Vivo Anticancer Drug Screen. Data for tumor model P388 Leukemia (intraperitoneal) in B6D2F1 (BDF1) mice. To be noted: endpoint: median survival time, higher = longer survival. A digest of the protocol:
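Each value expresses how treatment altered survival: treated-mouse outcome over vehicle-mouse outcome, both groups bearing the transplanted tumour.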

[1] abbreviates: dose: 12.5 mg/kg/injection, schedule: Q01DX009 (ip), vehicle: saline with Tween-80.
Setting [2] is: dose: 25.0 mg/kg/injection, schedule: Q01DX009 (ip), vehicle: saline with Tween-80.
Setting [3] is: dose: 25.0 mg/kg/injection, schedule: Q04DX003 (ip), vehicle: saline with Tween-80.
[4] abbreviates: dose: 50.0 mg/kg/injection, schedule: Q01DX009 (ip), vehicle: saline with Tween-80.
[5] abbreviates: dose: 50.0 mg/kg/injection, schedule: Q04DX003 (ip), vehicle: saline with Tween-80.
[6] abbreviates: dose: 100.0 mg/kg/injection, schedule: Q04DX003 (ip), vehicle: saline with Tween-80.
The mark [7] stands for this setting: dose: 12.5 mg/kg/injection, schedule: Q01DX009 (ip), vehicle: saline.
Setting [8] is: dose: 50.0 mg/kg/injection, schedule: Q01DX009 (ip), vehicle: saline.
[9] abbreviates: dose: 200.0 mg/kg/injection, schedule: Q04DX003 (ip), vehicle: saline with Tween-80.
Setting [10] is: dose: 400.0 mg/kg/injection, schedule: Q04DX003 (ip), vehicle: saline with Tween-80.
Setting [11] is: dose: 100.0 mg/kg/injection, schedule: Q01DX009 (ip), vehicle: saline with Tween-80.
The mark [12] stands for this setting: dose: 100.0 mg/kg/injection, schedule: Q04DX003 (ip), vehicle: Klucel (hydroxypropylcellulose) (HPC).
Where [13] appears, read: dose: 400.0 mg/kg/injection, schedule: Q04DX003 (ip), vehicle: Klucel (hydroxypropylcellulose) (HPC).

Where “and” joins values, the source holds several entries; their conditions need not be identical. Equal values may be shown once. Toxic doses and inconclusive results are not listed. Residues, ends and D or L forms follow the SMILES beside them. *: point of attachment. Cbz = O=C(OCc1ccccc1)*; OBn = c1ccc(CO*)cc1; Bn = c1ccc(C*)cc1

Turning to `COc1ccc(CC(=O)NCCc2ccccc2)cc1OC`, the T/C was 112 % of control under setting [1]; 100 % of control (dose: 12.5 mg/kg/injection, schedule: Q04DX003 (ip), vehicle: saline with Tween-80); 104 % of control under setting [2]; 100 % of control under setting [3]; 110 % of control under setting [4]; 109 % of control under setting [5]. Besides, the T/C under setting [6] is 99 % of control and 100 % of control.

Consider `C#CCSC(=N)N`, for which the T/C was 100 % of control under setting [7]; 109 % of control and 118 % of control (dose: 33.0 mg/kg/injection, schedule: Q01DX009 (ip), vehicle: saline); 109 % of control (dose: 37.5 mg/kg/injection, schedule: Q04DX003 (ip), vehicle: saline); 100 % of control and 115 % of control under setting [8]; 109 % of control (dose: 75.0 mg/kg/injection, schedule: Q04DX003 (ip), vehicle: saline).

`CCCCCCCCCC(=O)CCCC`: the T/C is, setting by setting: under setting [6], 100 % of control; under setting [9], 91 % of control; under setting [10], 108 % of control.

Turning to `NC(=S)c1ncc(N)s1`, the T/C under setting [2] was 89 % of control, the T/C under setting [4] was 98 % of control and the T/C under setting [11] was 106 % of control.

Consider `COc1cccc2c1C(=O)c1c(O)c3c(c(O)c1C2=O)C[C@@](O)(/C(C)=N/NC(=O)c1ccc(-c2ccccc2)cc1)C[C@@H]3OC1CC(N)C(O)C(C)O1` (some centres undefined), for which the T/C runs as follows: (dose: 0.78 mg/kg/injection, schedule: Q01DX009 (ip), vehicle: water) 107 % of control; (dose: 1.56 mg/kg/injection, schedule: Q01DX009 (ip), vehicle: water) 122 % of control; (dose: 3.12 mg/kg/injection, schedule: Q01DX009 (ip), vehicle: water) 224 % of control; (dose: 6.25 mg/kg/injection, schedule: Q01DX009 (ip), vehicle: water) 157 % of control; (dose: 12.5 mg/kg/injection, schedule: Q01DX009 (ip), vehicle: water) 169 % of control.

As for `COc1ccc(/C=N/NC(=O)C[n+]2ccccc2)c(OC)c1`, the T/C reads like this: under setting [2], 104 % of control; under setting [3], 118 % of control; under setting [4], 109 % of control; under setting [5], 104 % of control; under setting [11], 100 % of control; under setting [6], 104 % of control.

Consider `N#CCCC1(CCC#N)c2ccccc2-c2ccccc21`, for which the T/C is 92 % of control (dose: 100.0 mg/kg/injection, schedule: Q01DX009 (ip), vehicle: Klucel (hydroxypropylcellulose) (HPC)); 96 % of control under setting [12]; 92 % of control (dose: 200.0 mg/kg/injection, schedule: Q01DX009 (ip), vehicle: Klucel (hydroxypropylcellulose) (HPC)); 112 % of control (dose: 200.0 mg/kg/injection, schedule: Q04DX003 (ip), vehicle: Klucel (hydroxypropylcellulose) (HPC)); 92 % of control (dose: 400.0 mg/kg/injection, schedule: Q01DX009 (ip), vehicle: Klucel (hydroxypropylcellulose) (HPC)); 92 % of control under setting [13].

Turning to `COc1cc(NC(=O)C(C)NC(=O)C(N)CCCCN)cc2ccccc12` (centres undefined), the T/C by setting is: (dose: 50.0 mg/kg/injection, schedule: Q01DX005 (ip), vehicle: suspension in saline) 95 % of control; (dose: 100.0 mg/kg/injection, schedule: Q01DX005 (ip), vehicle: suspension in saline) 90 % of control.

In the case of `CS(=O)(=O)OCCCCCOS(C)(=O)=O`, the T/C by setting is: under setting [7], 95 % of control; (dose: 25.0 mg/kg/injection, schedule: Q01DX009 (ip), vehicle: saline) 100 % of control; (dose: 50.0 mg/kg/injection, schedule: Q04DX003 (ip), vehicle: saline) 113 % of control.

Regarding `Cc1ccc(NC(=O)CC#N)c(C)c1`, the T/C is 109 % of control (dose: 100.0 mg/kg/injection, schedule: Q04DX003 (ip), vehicle: saline); 100 % of control (dose: 200.0 mg/kg/injection, schedule: Q04DX003 (ip), vehicle: saline); 92 % of control (dose: 400.0 mg/kg/injection, schedule: Q04DX003 (ip), vehicle: saline).

On to `Nc1ccc(C(=O)CC(C(=O)O)c2ccccc2)cc1` (centres undefined), for which the T/C is 88 % of control (dose: 100.0 mg/kg/injection, schedule: Q04DX002 (ip), vehicle: saline with Tween-80); 90 % of control (dose: 200.0 mg/kg/injection, schedule: Q04DX002 (ip), vehicle: saline with Tween-80); 99 % of control (dose: 400.0 mg/kg/injection, schedule: Q04DX002 (ip), vehicle: saline with Tween-80).

Turning to `CSc1ccc(OC(=O)Nc2ccc(C)c([N+](=O)[O-])c2)cc1C`, the T/C by setting is: under setting [6], 90 % of control; under setting [9], 95 % of control; under setting [10], 104 % of control.

In the case of `CCCCOC(=O)C1(N)CCCC1`, the T/C is 104 % of control under setting [8]; 120 % of control (dose: 150.0 mg/kg/injection, schedule: Q01DX009 (ip), vehicle: saline with Tween-80); 109 % of control (dose: 200.0 mg/kg/injection, schedule: Q01DX009 (ip), vehicle: saline).

As for `CC1CN1P(=S)(N1CC1C)N1CC1C` (centres undefined), the T/C runs as follows: (dose: 1.25 mg/kg/injection, schedule: Q01DX010 (ip), vehicle: saline) 104 % of control; (dose: 2.5 mg/kg/injection, schedule: Q01DX010 (ip), vehicle: saline) 104 % of control; (dose: 5.0 mg/kg/injection, schedule: Q01DX010 (ip), vehicle: saline) 104 % of control; (dose: 10.0 mg/kg/injection, schedule: Q01DX010 (ip), vehicle: saline) 104 % of control.

As for `CCCCc1c(C(=O)OCC)oc(C(=O)OCC)c(CCCC)c1=O`, the T/C is, setting by setting: (dose: 12.5 mg/kg/injection, schedule: Q04DX003 (ip), vehicle: Klucel (hydroxypropylcellulose) (HPC)) 99 % of control; (dose: 25.0 mg/kg/injection, schedule: Q04DX003 (ip), vehicle: Klucel (hydroxypropylcellulose) (HPC)) 91 % of control; (dose: 50.0 mg/kg/injection, schedule: Q04DX003 (ip), vehicle: Klucel (hydroxypropylcellulose) (HPC)) 115 % of control; under setting [12], 91 % of control; under setting [13], 102 % of control.

With `Cc1cc(=O)[nH]c2c1CCCCC2`, the T/C is 104 % of control (dose: 50.0 mg/kg/injection, schedule: Q01DX001 (ip), vehicle: saline sonified) and 95 % of control (dose: 100.0 mg/kg/injection, schedule: Q01DX001 (ip), vehicle: saline sonified).

Turning to `CC[C@@]12CCCN3CC[C@]4(c5cccc(OC)c5N(C(C)=O)[C@@H]4CC1)[C@H]32`, the T/C reads like this: (dose: 6.25 mg/kg/injection, schedule: Q01DX009 (ip), vehicle: Klucel (hydroxypropylcellulose) (HPC)) 100 % of control; (dose: 12.5 mg/kg/injection, schedule: Q01DX009 (ip), vehicle: Klucel (hydroxypropylcellulose) (HPC)) 95 % of control; (dose: 25.0 mg/kg/injection, schedule: Q01DX009 (ip), vehicle: Klucel (hydroxypropylcellulose) (HPC)) 104 % of control; (dose: 50.0 mg/kg/injection, schedule: Q01DX001 (ip), vehicle: Klucel (hydroxypropylcellulose) (HPC)) 108 % of control; (dose: 100.0 mg/kg/injection, schedule: Q01DX001 (ip), vehicle: Klucel (hydroxypropylcellulose) (HPC)) 116 % of control; (dose: 200.0 mg/kg/injection, schedule: Q01DX001 (ip), vehicle: Klucel (hydroxypropylcellulose) (HPC)) 91 % of control.

For the compound `COc1cc([C@@H]2Oc3cc([C@@H]4Oc5cc(O)cc(O)c5C(=O)[C@H]4O)ccc3O[C@H]2CO)ccc1O`, the T/C is 107 % of control under setting [6], 93 % of control under setting [9] and 97 % of control under setting [10].

Consider `CC1(C)CC(=O)C(C(=O)Nc2ccc(Cl)cc2)C(=O)C1`, for which the T/C runs as follows: under setting [4], 98 % of control; under setting [11], 93 % of control; (dose: 200.0 mg/kg/injection, schedule: Q01DX009 (ip), vehicle: saline with Tween-80) 89 % of control.

Turning to `CC(C)CC(NC(=O)C(CSCc1ccccc1)NC(=O)OCc1ccccc1)C(=O)OCc1ccccc1` (centres undefined) (Cbz-Cys(Bn)-Leu-OBn; configuration not given here), the T/C reads like this: (dose: 100.0 mg/kg/injection, schedule: Q04DX003 (ip), vehicle: gum acacia) 104 % of control; (dose: 200.0 mg/kg/injection, schedule: Q04DX003 (ip), vehicle: gum acacia) 100 % of control; (dose: 400.0 mg/kg/injection, schedule: Q04DX003 (ip), vehicle: gum acacia) 100 % of control.

`NC(=S)N/N=C/c1ccc(OC(=O)Cc2ccccc2)cn1`: under setting [1], the T/C was 150 % of control.
